Patent publication US20100160176A1, “RAT GENE […] OF DRUG TRANSPORTERS, CYTOCHROME P450s, TRANSFERASES AND NUCLEAR […] FOR PREDICTING DRUG EFFECTS” (NOAB BIOD[…]., priority 2008, published 2010)
Where two headings read alike, the source gives them in different places.

Assays:
[1] = tested on: ABCC3 gene expression; assay: Rat DTEx microarray gene expression profiling in drug-treated female rat primary hepatocytes (FIG. 109): ABCC3; assay type: in vitro ADME
Experimental: (§1) Images were analysed using QuantArray software (GSI Lumonics Inc.).

[2] = tested on: ABCD2 gene expression; assay: Rat DTEx microarray gene expression profiling in drug-treated female rat primary hepatocytes (FIG. 109): ABCD2; assay type: in vitro ADME
Experimental: as §1

[3] = tested on: CYP3A1 gene expression; assay: Rat DTEx microarray gene expression profiling in drug-treated female rat primary hepatocytes (FIG. 109): CYP3A1; conditions: female rat primary hepatocytes treated with the drug
From the text: The total RNA component of the nucleic acid lysate was isolated according to the manufacturer's instructions.

[4] = female rat primary hepatocytes treated with the drug, FIG. 109

Structure (SMILES) | effect on ABCC3 gene expression (normalized fluorescence intensity dendrogram plot) [1, 4] | effect on ABCD2 gene expression (normalized fluorescence intensity dendrogram plot) [2, 4] | effect on CYP3A1 gene expression (normalized fluorescence intensity dendrogram plot) [3] | effect on ABCC3 gene expression (normalized fluorescence intensity dendrogram plot) [1] | effect on ABCD2 gene expression (normalized fluorescence intensity dendrogram plot) [2]
CC(=O)[C@H]1[C@H](C#N)C[C@H]2[C@@H]3CC=C4C[C@@H](O)CC[C@]4(C)[C@H]3CC[C@@]21C [PCN] | suppresses gene expression | suppress | induce |  | 
C[C@@H]1C[C@H]2[C@@H]3CCC4=CC(=O)C=C[C@]4(C)[C@@]3(F)[C@@H](O)C[C@]2(C)[C@@]1(O)C(=O)CO [DEX, dexamethasone] |  |  |  | induces gene expression | suppress
